Converted amounts (≈) assume the structure as drawn. Where two headings read alike, the source gives them in different places.
Assays:
cellular system = settings: cited from earlier work
[1] = system: BV2 (mouse microglia) cell line; experiment: pHrodo-myelin phagocytosis/cell viability high content imaging assay: phagocytosis signal; format: cell-based
Summary of the method: (§1)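 HCI read-out ~22 h post pHrodo-myelin; phagocytosis + viability simultaneously; 3 parameters extracted; intensity up = early apoptosis, down = later apoptosis.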

physchem = settings: pH 7.4, aqueous buffer, kinetic from dmso stock
[2] = system: protein product expressed by the gene target; settings: cited from earlier work
[3] = system: HMC3 (human microglia) cell line; experiment: pHrodo-myelin phagocytosis/cell viability high content imaging assay: phagocytosis signal; format: cell-based
Summary of the method: as §1

[4] = system: BV2 (mouse microglia) cell line; experiment: pHrodo-myelin phagocytosis/cell viability high content imaging assay: viability (cell count, nuclear area, nuclear intensity)
Summary of the method: (§2)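 10 μM single dose, 48 h total; pHrodo-myelin present final 20 h. Read-out: automated imaging, total cell count/well, mean nuclear intensity/cell. n=2, normalized to untreated wells, % control.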

[5] = system: HMC3 (human microglia) cell line; experiment: as above; settings: HMC3, 10 μM
Summary of the method: as §2

[6] = published cellular activity at 10 μM

Row | SMILES | Reported as cell active (<10 μM) (cellular system; [6]) | solubility kinetic (physchem) [µM] | Stimulation of mouse microglial phagocytosis at 10 μM (>150% control) ([1]; BV2, 10 μM) | Mouse microglial cytotoxicity at 10 μM (<70% control) ([4]; BV2, 10 μM) | Reported on-target biochemical potency [2] [nM] | further results
1 | CN(C)CC1CCOC1(c1ccccc1)c1ccccc1.Cl (stereo not drawn) [AN2/AVex-73 HCl (Blarcamesine)] | Y (Published data supports that the compound is active in a cellular system when dosed at 10 μM (Y/N)) | 174 | – | – | – | Stimulation of mouse microglial phagocytosis at 10 μM (>150% control) ([1]; BV2 cells, 10 μM): Y (The compound was found to stimulate phagocytosis (response threshold: >150% control) when murine immortalized microglial cells were dosed at 10 μM (Y: yes)); Reported on-target biochemical potency (nM) ([2]; SIG-1R (genes listed: SIG-1R and CHRM2), ref PubMed 20829307, 29127580): SIG-1R = 860 nM
2 | CCN(C)C(=O)Oc1cccc([C@H](C)N(C)C)c1 [Rivastigmine] | – | 160 (≈ 40 µg/mL) | Y (The compound was found to stimulate phagocytosis (response threshold: >150% control) when murine immortalized microglial cells were dosed at 10 μM (Y: yes)) | – | – | Reported on-target biochemical potency (nM): BChE ([2]; gene target BCHE, ref PubMed 23469045, 12166941): 37 nM
3 | Cl.NCCOCCOCCNC(=O)Cc1ccc(Nc2nc(NCc3ccc(F)cc3)nc(NCC3CCCCC3)n2)cc1 [ENOblock (AP-III-a4)] | – | 76.8 | Y (The compound was found to stimulate phagocytosis (response threshold: >150% control) when murine immortalized microglial cells were dosed at 10 μM (Y: yes)) | Y (The compound was found to be cytotoxic (cell count threshold: <70% control) when murine immortalized microglial cells were dosed at 10 μM (Y: yes)) | – | Inhibition of human microglial phagocytosis at 10 μM (<70% control) ([3]; HMC3, 10 μM): Y (The compound was found to inhibit phagocytosis (response threshold: <70% control) when human immortalized microglial cells were dosed at 10 μM (Y: yes)); Reported on-target biochemical potency ([2]; gene target ENO1, ref Probe Miner, PubMed 30679508, 28272459): 576 nM
4 | CCc1cnn2c(NCc3ccc[n+]([O-])c3)cc(N3CCCC[C@H]3CCO)nc12 [Dinaciclib] | – | 143 (≈ 56.8 µg/mL) | – | Y (The compound was found to be cytotoxic (cell count threshold: <70% control) when murine immortalized microglial cells were dosed at 10 μM (Y: yes)) | – | Stimulation of human microglial phagocytosis at 10 μM (>150% control) ([3]; HMC3, 10 μM): Y (The compound was found to stimulate phagocytosis (response threshold: >150% control) when human immortalized microglial cells were dosed at 10 μM (Y: yes)); Inhibition of mouse microglial phagocytosis at 10 μM (<70% control) ([1]; BV2, 10 μM): Y (The compound was found to inhibit phagocytosis (response threshold: <70% control) when murine immortalized microglial cells were dosed at 10 μM (Y: yes)); Human microglial cytotoxicity at 10 μM (<70% control) [5]: Y (The compound was found to be cytotoxic (cell count threshold: <70% control) when human immortalized microglial cells were dosed at 10 μM (Y: yes)); Reported on-target biochemical potency ([2]; gene target CDK9, ref PubMed 20663931, 25289887, 21768779): 4 nM
5 | c1cn2cc(-c3ccc4cn[nH]c4c3)nc(Nc3ccc(N4CCOCC4)cc3)c2n1 [Entospletinib (GS-9973)] | Y (Published data supports that the compound is active in a cellular system when dosed at 10 μM (Y/N)) | 0.5 (≈ 0.206 µg/mL) | – | – | 7.7 | Inhibition of human microglial phagocytosis at 10 μM (<70% control) ([3]; HMC3 cells, 10 μM): Y (The compound was found to inhibit phagocytosis (response threshold: <70% control) when human immortalized microglial cells were dosed at 10 μM (Y: yes)); Inhibition of mouse microglial phagocytosis at 10 μM (<70% control) ([1]; BV2 cells, 10 μM): Y (The compound was found to inhibit phagocytosis (response threshold: <70% control) when murine immortalized microglial cells were dosed at 10 μM (Y: yes)); Mouse microglial cytotoxicity at 10 μM (<70% control) ([4]; BV2 cells, 10 μM, cell count <70% control): Y (The compound was found to be cytotoxic (cell count threshold: <70% control) when murine immortalized microglial cells were dosed at 10 μM (Y: yes))
6 | CN(C)CCCN1c2ccccc2Sc2ccc(Cl)cc21 [Chlorpromazine] | – | 102 (≈ 32.6 µg/mL) | – | – | >1000 | Reported as cell active (<10 μM) (cellular system): N

From article PMC9019904, “AD Informer Set: Chemical tools to facilitate Alzheimer's disease drug discovery” (Alzheimer's & Dementia : Translational Research & Clinical …, 2022)
